# Laboratory results as given in patent US11322228B2, “Structure based design of d-protein ligands” (Janssen Vaccines & Prevention B.V., priority 2015, dated 2022).
# Where a SMILES comes first, the peptide text is derived from it. Bridges are numbered along the chain shown (N, C = ends). Where no end group is shown, it is not given here. [ ]: non-standard residue; d: D form. d2Nal = N[C@H](Cc1ccc2ccccc2c1)C(=O)O; dNle = CCCC[C@@H](N)C(=O)O
# What was measured:
# [1] = tested on: Influenza hemagglutinin; assay: ELISA assay for competition with designer protein HB80.4 (stem epitope); type: binding; conditions: for competition with HB80.4 (result in words): stem binding HB80.4, competition ELISA on HA
# [2] = molecular target: T1, IL17A (Homo sapiens, UniProt Q16552); assay: ELISA competition assay against Centyrin WPW-His on IL17A; type: binding
# Source text: (§1) In order to assess the potential binding of the D-Proteins to IL17A at the binding site of CNT06785, the D-Proteins were screened in an ELISA competition assay against a known competitor of antibody CNT06785, Centyrin WPW-His. To show the specific binding to the epitope, negative control antibody CAT2200 was taken along that binds to a different, non-overlapping epitope on IL17A. […] Upper graphs show competition with centyrin WPW, lower graphs—with antibody CAT2200 binding to a non-overlapping epitope. Response is plotted as a function of logarithm of concentration.
# [3] = molecular target: T1, IL17A; assay: ELISA competition assay against negative control antibody CAT2200 (non-overlapping epitope) on IL17A; conditions: antibody binding a non-overlapping epitope on IL17A
# Source text: as §1
# [4] = tested on: Influenza hemagglutinin; assay: ELISA competition with head binding antibody CR11054 (non-overlapping epitope); conditions: non-overlapping epitope on HA
# T1 sequence (Q16552 24-155): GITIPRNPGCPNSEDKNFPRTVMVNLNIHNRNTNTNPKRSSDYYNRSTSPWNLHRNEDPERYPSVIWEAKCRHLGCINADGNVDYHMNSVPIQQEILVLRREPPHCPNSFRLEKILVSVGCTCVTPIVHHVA
Compound,competition with HB80.4 (result in words) [1],competition with centyrin WPW (result in words) [2],competition with CAT2200 (result in words) [3],"pIC50, competition with HB80.4 ([1]; competition ELISA on HA)","IC50 ([1]; competition ELISA on HA, read-out: IC50 given in brackets after pIC50, competition with HB80.4 (converted)) [µM]",competition with CR11054 (result in words) [4]
"racprilkkcrrdsdcpGecickGnGycG (RACPRILKKCRRDSDCPGECICKGNGYCG) [DP141753, wild-type scaffold 2LJS as D-protein, negative control, reference compound]",no competition until the highest concentration,–,–,–,–,–
"CCCC[C@H]1NC(=O)[C@@H](CCCCN)NC(=O)[C@@H](CCSC)NC(=O)[C@@H](CC(C)C)NC(=O)[C@@H](Cc2c[nH]cn2)NC(=O)[C@@H](CCCCN)NC(=O)[C@H]2CSSC[C@H]3NC(=O)[C@@H]([C@H](C)O)NC(=O)[C@@H](CCCCN)NC(=O)[C@@H](CCCNC(=N)N)NC(=O)[C@@H](CSSC[C@@H](NC(=O)[C@@H](Cc4ccccc4)NC(=O)[C@@H](CC(C)C)NC(=O)[C@@H](CCCCN)NC(=O)[C@H]4CCCN4C(=O)[C@@H](Cc4ccccc4)NC(=O)[C@@H]([C@H](C)O)NC(=O)[C@@H](C)NC(=O)[C@@H](CCC(N)=O)NC(=O)[C@H](NC(=O)[C@@H](CO)NC(=O)[C@H](N)CCCNC(=N)N)CSSC[C@H](C(=O)O)NC(=O)[C@@H]([C@H](C)O)NC(=O)CNC3=O)C(=O)N[C@H]([C@H](C)O)C(=O)N[C@H](C)C(=O)N[C@H](Cc3ccccc3)C(=O)N[C@H](CC(C)C)C(=O)N2)NC(=O)[C@@H](Cc2ccc3ccccc3c2)NC(=O)[C@@H](CO)NC(=O)[C@@H](CC(C)C)NC(=O)[C@@H](CCCNC(=N)N)NC1=O [DP142137, H-rscqatfpklfctaflckhlmkxrls<crktcGtc-OH] (H-[dR][dS][dC][dQ][dA][dT][dF][dP][dK][dL][dF][dC][dT][dA][dF][dL][dC][dK][dH][dL][dM][dK][dNle][dR][dL][dS][d2Nal][dC][dR][dK][dT][dC]G[dT][dC]-OH; disulfide 3-35, 12-28, 17-32)",–,clear binding curve,lack of activity,–,–,–
H-rscqatepkyfctaflckhlmkarlsycrktcGtc-OH (H-[dR][dS][dC][dQ][dA][dT][dE][dP][dK][dY][dF][dC][dT][dA][dF][dL][dC][dK][dH][dL][dM][dK][dA][dR][dL][dS][dY][dC][dR][dK][dT][dC]G[dT][dC]-OH; cysteine pairing not given here) [DP141065],–,lack of activity,lack of activity,–,–,–
"rfcpsibkkcrrdsdcpG!cickGnGycG (RFCPSIXKKCRRDSDCPGXCICKGNGYCG; not fully specified (some residues); printed as rfcpsibkkcrrdsdcpG!cickGnGycG; cysteine pairing not given here) [DP142093, optimized HA hit, D-protein on scaffold 2LJS]",clear S-curve,–,–,4.1,88,no competition
H-rsciatepksfctaflckhlmkarlsycrktcGtc-OH (H-[dR][dS][dC][dI][dA][dT][dE][dP][dK][dS][dF][dC][dT][dA][dF][dL][dC][dK][dH][dL][dM][dK][dA][dR][dL][dS][dY][dC][dR][dK][dT][dC]G[dT][dC]-OH; cysteine pairing not given here) [DP141063],–,lack of activity,lack of activity,–,–,–
"H-rscidtipksrctafqckhsmkyrlsfcrktcGtc-OH [DP141050, reference compound]",–,lack of activity,lack of activity,–,–,lack of activity
